Converted amounts (≈) assume the structure as drawn.
How the values were obtained:
[1] = Selectivity index, ratio of IC50 for mouse RAW264.7 cells to MIC for Mycobacterium tuberculosis H37Rv ATCC 27294; assay type: toxicity; details: read-out: Selectivity Index
[2] = test system: RAW264.7; experiment: Cytotoxicity against mouse RAW264.7 cells after 72 hrs by MTT assay; assay type: cell-based; details: RAW264.7, 72 h
[3] = Cytotoxicity against mouse RAW264.7 cells at 50 uM after 72 hrs by MTT assay; assay type: cell-based; details: read-out: INH
[4] = test system: Escherichia coli; experiment: Antimicrobial activity against Escherichia coli ATCC 25922 after 24 hrs by broth microdilution method; assay type: functional; details: ATCC 25922, 24 h
[5] = test system: Staphylococcus aureus; experiment: Antimicrobial activity against Staphylococcus aureus ATCC 29213 after 24 hrs by broth microdilution method; assay type: functional; details: ATCC 29213, 24 h
[6] = test system: Mycobacterium tuberculosis; experiment: Antimicrobial activity against Mycobacterium tuberculosis H37Rv ATCC 27294 after 3 weeks by microbroth dilution method; assay type: functional; details: H37Rv ATCC 27294, 504 h
[7] = test system: Escherichia coli; experiment: Bactericidal activity against Escherichia coli ATCC 25922 assessed as 3 log reduction in inoculum size after 24 hrs by broth microdilution method relative to control; assay type: functional; details: ATCC 25922, 24 h
[8] = test system: Staphylococcus aureus; experiment: Bactericidal activity against Staphylococcus aureus ATCC 29213 assessed as 3 log reduction in inoculum size after 24 hrs by broth microdilution method relative to control; assay type: functional; details: ATCC 29213, 24 h
[9] = Inhibition of DNA gyrase (unknown origin) using relaxed pBR322 as substrate after 30 mins by agarose gel electrophoresis

Q: For CC(c1ccccc1)N1CCN(CC(=O)N2CCN(c3cc4c(cc3F)c(=O)c(C(=O)O)cn4C3CC3)CC2)CC1 (stereo not drawn), which selectivity ratio [1] is on record?
A: 5.17

Q: What about the IC50 [2] of the same molecule?
A: 148 µM

Q: What about the cytotoxicity at 72 h, 50 µM [3] of the same molecule?
A: 16.9%

Q: What about the MIC99 [4] of the same molecule?
A: 3.56 µM (≈ 2 µg/mL)

Q: What about the MIC99 [5] of the same molecule?
A: 1.78 µM (≈ 1 µg/mL)

Q: What about the MIC99 [6] of the same molecule?
A: 28.6 µM (≈ 16 µg/mL)

Q: With Cc1cccc(N2CCN(CC(=O)N3CCN(c4cc5c(cc4F)c(=O)c(C(=O)O)cn5C4CC4)CC3)CC2)c1 as the molecule, how does the selectivity ratio [1] read?
A: 5.26

Q: And the IC50 [2]?
A: 154 µM

Q: And the cytotoxicity at 72 h, 50 µM [3]?
A: 16.2%

Q: And the MIC99 [4]?
A: 7.32 µM (≈ 4.01 µg/mL)

Q: And the MIC99 [5]?
A: 1.83 µM (≈ 1 µg/mL)

Q: And the MIC99 [6]?
A: 29.3 µM (≈ 16 µg/mL)

Q: For CC(=O)N1CCN(CC(=O)N2CCN(c3cc4c(cc3F)c(=O)c(C(=O)O)cn4C3CC3)CC2)CC1, which selectivity ratio [1] is on record?
A: 9.59

Q: What about the IC50 [2] of the same molecule?
A: 154 µM

Q: What about the cytotoxicity at 72 h, 50 µM [3] of the same molecule?
A: 16.2%

Q: And the MIC99 [4]?
A: 16.1 µM (≈ 8.02 µg/mL)

Q: And the MIC99 [5]?
A: 4.01 µM (≈ 2 µg/mL)

Q: What about the MIC99 [6] of the same molecule?
A: 16.1 µM (≈ 8.02 µg/mL)

Q: With N#Cc1ccccc1N1CCN(CC(=O)N2CCN(c3cc4c(cc3F)c(=O)c(C(=O)O)cn4C3CC3)CC2)CC1 as the molecule, how does the MIC99 [4] read?
A: 3.58 µM (≈ 2 µg/mL)

Q: And the MIC99 [5]?
A: 0.89 µM (≈ 0.497 µg/mL)

Q: What about the MIC99 [6] of the same molecule?
A: > 115 µM

Q: Which MIC99 [4] does the source give for O=C(O)c1cn(C2CC2)c2cc(N3CCNCC3)c(F)cc2c1=O [CIPROFLOXACIN] here?
A: 0.021 µM (≈ 0.00696 µg/mL)

Q: And the MIC99 [5]?
A: 0.37 µM (≈ 0.123 µg/mL)

Q: For CN(C)CCN1CCN(CC(=O)N2CCN(c3cc4c(cc3F)c(=O)c(C(=O)O)cn4C3CC3)CC2)CC1, which MIC99 [4] is on record?
A: 7.58 µM (≈ 4.01 µg/mL)

Q: What about the MIC99 [5] of the same molecule?
A: 7.58 µM (≈ 4.01 µg/mL)

Q: And the MIC99 [6]?
A: 121 µM (≈ 64.2 µg/mL)

Q: Which MBC [7] does the source give for O=C(O)c1cn(C2CC2)c2cc(N3CCN(C(=O)CN4CCN(c5ccccc5)CC4)CC3)c(F)cc2c1=O here?
A: 7.51 µM (≈ 4.01 µg/mL)

Q: And the MBC [8]?
A: 7.51 µM (≈ 4.01 µg/mL)

Q: What about the MIC99 [4] of the same molecule?
A: 1.87 µM (≈ 0.998 µg/mL)

Q: And the MIC99 [5]?
A: 0.93 µM (≈ 0.496 µg/mL)

Q: What about the MIC99 [6] of the same molecule?
A: > 120 µM

Q: Which selectivity ratio [1] does the source give for O=C(O)c1cn(C2CC2)c2cc(N3CCN(C(=O)CN4CCN(c5ccccc5Cl)CC4)CC3)c(F)cc2c1=O here?
A: 5.92

Q: What about the IC50 [2] of the same molecule?
A: 167 µM

Q: And the cytotoxicity at 72 h, 50 µM [3]?
A: 14.9%

Q: And the MBC [7]?
A: 7.06 µM (≈ 4.01 µg/mL)

Q: And the MBC [8]?
A: 0.88 µM (≈ 0.5 µg/mL)

Q: And the MIC99 [4]?
A: 0.88 µM (≈ 0.5 µg/mL)

Q: And the MIC99 [5]?
A: 0.44 µM (≈ 0.25 µg/mL)

Q: What about the MIC99 [6] of the same molecule?
A: 28.2 µM (≈ 16 µg/mL)

Q: For O=C(O)c1cn(C2CC2)c2cc(N3CCN(C(=O)CN4CCN(c5ccc(F)c(F)c5)CC4)CC3)c(F)cc2c1=O, which MIC99 [4] is on record?
A: > 225 µM

Q: And the MIC99 [5]?
A: > 225 µM

Q: And the MIC99 [6]?
A: > 113 µM

Q: With O=C(O)c1cn(C2CC2)c2cc(N3CCN(C(=O)CN4CCN(c5ccc(Cl)cc5)CC4)CC3)c(F)cc2c1=O as the molecule, how does the MIC99 [4] read?
A: 7.06 µM (≈ 4.01 µg/mL)

Q: And the MIC99 [5]?
A: 1.76 µM (≈ 1 µg/mL)

Q: What about the MIC99 [6] of the same molecule?
A: 113 µM (≈ 64.2 µg/mL)

Q: With CO[C@H]1/C=C/O[C@@]2(C)Oc3c(C)c(O)c4c(O)c(c(/C=N/N5CCN(C)CC5)c(O)c4c3C2=O)NC(=O)/C(C)=C\C=C\[C@H](C)[C@H](O)[C@@H](C)[C@@H](O)[C@@H](C)[C@H](OC(C)=O)[C@@H]1C [RIFAMPIN] as the molecule, how does the MIC99 [6] read?
A: 0.14 µM (≈ 0.115 µg/mL)

Q: With O=C(O)c1cn(C2CC2)c2cc(N3CCN(C(=O)CN4CCN(c5ncccn5)CC4)CC3)c(F)cc2c1=O as the molecule, how does the selectivity ratio [1] read?
A: 3.79

Q: And the IC50 [2]?
A: 227 µM

Q: What about the cytotoxicity at 72 h, 50 µM [3] of the same molecule?
A: 11%

Q: And the MIC99 [4]?
A: 3.74 µM (≈ 2 µg/mL)

Q: And the MIC99 [5]?
A: 1.87 µM (≈ 1 µg/mL)

Q: And the MIC99 [6]?
A: 59.9 µM (≈ 32.1 µg/mL)

Q: For CN1CCN(CC(=O)N2CCN(c3cc4c(cc3F)c(=O)c(C(=O)O)cn4C3CC3)CC2)CC1, which MIC99 [4] is on record?
A: 34 µM (≈ 16 µg/mL)

Q: What about the MIC99 [5] of the same molecule?
A: 34 µM (≈ 16 µg/mL)

Q: And the MIC99 [6]?
A: 136 µM (≈ 64.2 µg/mL)

Q: Which MIC99 [4] does the source give for COc1ccc(N2CCN(CC(=O)N3CCN(c4cc5c(cc4F)c(=O)c(C(=O)O)cn5C4CC4)CC3)CC2)cc1OC here?
A: 6.75 µM (≈ 4.01 µg/mL)

Q: And the MIC99 [5]?
A: 1.68 µM (≈ 0.997 µg/mL)

Q: What about the MIC99 [6] of the same molecule?
A: > 108 µM

Q: Which results are given for O=C(O)c1cn(C2CC2)c2cc(N3CCN(C(=O)CN4CCN(C(c5ccc(F)cc5)c5ccc(F)cc5)CC4)CC3)c(F)cc2c1=O?
A: MIC99 [4]: > 24.3 µM; MIC99 [5]: 1.51 µM (≈ 0.996 µg/mL); MIC99 [6]: > 97.2 µM

Q: What does the source list for N#Cc1ccc(N2CCN(CC(=O)N3CCN(c4cc5c(cc4F)c(=O)c(C(=O)O)cn5C4CC4)CC3)CC2)cc1?
A: MIC99 [4]: 7.17 µM (≈ 4.01 µg/mL); MIC99 [5]: 7.17 µM (≈ 4.01 µg/mL); MIC99 [6]: > 115 µM

Q: With O=C(O)c1cn(C2CC2)c2cc(N3CCN(C(=O)CN4CCN(c5ccc([N+](=O)[O-])cc5)CC4)CC3)c(F)cc2c1=O as the molecule, how does the MIC99 [4] read?
A: 13.8 µM (≈ 8.01 µg/mL)

Q: What about the MIC99 [5] of the same molecule?
A: 6.92 µM (≈ 4 µg/mL)

Q: What about the MIC99 [6] of the same molecule?
A: > 111 µM

Q: Which MIC99 [4] does the source give for O=C(O)c1cn(C2CC2)c2cc(N3CCN(C(=O)CN4CCN(c5cccc(C(F)(F)F)c5)CC4)CC3)c(F)cc2c1=O here?
A: 6.66 µM (≈ 4.01 µg/mL)

Q: And the MIC99 [5]?
A: 0.83 µM (≈ 0.499 µg/mL)

Q: What about the MIC99 [6] of the same molecule?
A: > 107 µM

Q: For COc1cccc(N2CCN(CC(=O)N3CCN(c4cc5c(cc4F)c(=O)c(C(=O)O)cn5C4CC4)CC3)CC2)c1, which MIC99 [4] is on record?
A: 3.55 µM (≈ 2 µg/mL)

Q: What about the MIC99 [5] of the same molecule?
A: 0.88 µM (≈ 0.496 µg/mL)

Q: And the MIC99 [6]?
A: > 114 µM

Q: Which results are given for O=C(O)c1cn(C2CC2)c2cc(N3CCN(C(=O)CN4CCN(c5ccccn5)CC4)CC3)c(F)cc2c1=O?
A: MIC99 [4]: 3.75 µM (≈ 2 µg/mL); MIC99 [5]: 1.87 µM (≈ 1 µg/mL); MIC99 [6]: > 120 µM

Q: With O=C(O)c1cn(C2CC2)c2cc(N3CCN(C(=O)CN4CCN(Cc5ccccc5)CC4)CC3)c(F)cc2c1=O as the molecule, how does the IC50 [9] read?
A: 7 µM

Q: And the selectivity ratio [1]?
A: 22

Q: What about the IC50 [2] of the same molecule?
A: 161 µM

Q: What about the cytotoxicity at 72 h, 50 µM [3] of the same molecule?
A: 15.5%

Q: What about the MIC99 [4] of the same molecule?
A: 1.83 µM (≈ 1 µg/mL)

Q: What about the MIC99 [5] of the same molecule?
A: 1.83 µM (≈ 1 µg/mL)

Q: And the MIC99 [6]?
A: 7.32 µM (≈ 4.01 µg/mL)

Q: Which results are given for O=C(O)c1cn(C2CC2)c2cc(N3CCN(C(=O)CN4CCN(C(c5ccccc5)c5ccccc5)CC4)CC3)c(F)cc2c1=O?
A: selectivity ratio [1]: 3.75; IC50 [2]: 96.6 µM; cytotoxicity at 72 h, 50 µM [3]: 25.9%; MIC99 [4]: 12.8 µM (≈ 8.01 µg/mL); MIC99 [5]: 0.8 µM (≈ 0.499 µg/mL); MIC99 [6]: 25.7 µM (≈ 16 µg/mL)

Q: Which results are given for O=C(O)c1cn(C2CC2)c2cc(N3CCN(C(=O)CN4CCN(c5cccc(O)c5)CC4)CC3)c(F)cc2c1=O?
A: MIC99 [4]: 3.64 µM (≈ 2 µg/mL); MIC99 [5]: 1.82 µM (≈ 1 µg/mL); MIC99 [6]: > 117 µM

Q: For CCN1CCN(CC(=O)N2CCN(c3cc4c(cc3F)c(=O)c(C(=O)O)cn4C3CC3)CC2)CC1, which selectivity ratio [1] is on record?
A: 5.68

Q: And the IC50 [2]?
A: 188 µM

Q: What about the cytotoxicity at 72 h, 50 µM [3] of the same molecule?
A: 13.3%

Q: And the MIC99 [4]?
A: 16.5 µM (≈ 8.02 µg/mL)

Q: And the MIC99 [5]?
A: 16.5 µM (≈ 8.02 µg/mL)

Q: And the MIC99 [6]?
A: 33 µM (≈ 16 µg/mL)

From ChEMBL document CHEMBL3098015, “Synthesis and evaluation of 1-cyclopropyl-6-fluoro-1,4-dihydro-4-oxo-7-(4-(2-(4-substitutedpiperazin-1-yl)acetyl)piperazin-1-yl)quinoline-3-carboxylic acid derivatives as anti-tubercular and antibacterial agents” (Eur J Med Chem, 2014)
